Data taken from publication PMC7589200, “Identification of Putative Non-Substrate-Based XT-I Inhibitors by Natural Product Library Screening” (Biomolecules, 2020).
Structures can show the parent of a compound that is named as a salt.

Target: T1, recombinant human XT-I (Homo sapiens, UniProt Q86Y38)
T1 sequence (Q86Y38 252-959 limits assumed): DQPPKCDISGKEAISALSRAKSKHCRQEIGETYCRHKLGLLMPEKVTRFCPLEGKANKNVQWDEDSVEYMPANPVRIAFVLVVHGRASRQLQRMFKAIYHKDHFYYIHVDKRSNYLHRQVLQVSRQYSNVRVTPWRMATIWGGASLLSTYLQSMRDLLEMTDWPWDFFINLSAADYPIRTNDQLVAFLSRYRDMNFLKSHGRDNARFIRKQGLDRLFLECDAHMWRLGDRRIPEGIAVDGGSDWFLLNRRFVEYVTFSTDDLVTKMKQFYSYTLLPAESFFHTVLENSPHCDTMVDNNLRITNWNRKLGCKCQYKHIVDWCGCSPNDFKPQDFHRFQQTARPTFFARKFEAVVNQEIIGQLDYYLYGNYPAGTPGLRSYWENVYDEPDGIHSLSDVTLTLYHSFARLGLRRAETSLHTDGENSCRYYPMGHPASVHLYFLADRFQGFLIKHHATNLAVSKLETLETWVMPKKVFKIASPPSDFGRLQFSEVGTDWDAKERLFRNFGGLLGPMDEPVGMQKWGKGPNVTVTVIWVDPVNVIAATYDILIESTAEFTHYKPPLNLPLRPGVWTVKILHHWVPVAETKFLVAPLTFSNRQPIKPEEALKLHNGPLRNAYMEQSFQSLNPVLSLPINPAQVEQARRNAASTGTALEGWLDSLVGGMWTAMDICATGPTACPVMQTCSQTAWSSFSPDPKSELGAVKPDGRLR
Experiment: NP library inhibitor screening, UPLC/ESI-MS/MS XT-I assay
Format: biochemical
Conditions: Table 2; 50 μM inhibitor; relative to control (DMSO = 100%); technical duplicates

XT-I Activity [%]	Compound
43	COc1cc(/C=C/C(=O)CC(=O)/C=C/c2ccc(O)c(OC)c2)ccc1O [Compound 86, Curcumin]

Same assay, conditions: Table S1; 50 μM inhibitor; relative to negative control containing DMSO; technical duplicates

Compound	remaining activity at 50 µM [%]	XT-I Activity [%]
O=C(O)c1cccnc1 [Compound 19, Nicotinic Acid]	126	
C[C@H](CCC(=O)O)[C@H]1CC[C@H]2[C@@H]3[C@@H](O)C[C@@H]4C[C@H](O)CC[C@]4(C)[C@H]3CC[C@]12C [Compound 39, Ursodiol]	98	
CC1=CC(=O)c2ccccc2C1=O [Compound 66, Menadione]	106	
Oc1c(Cl)cc(Cl)c2cccnc12 [Compound 64, Chloroxine]	121	
C/C(=C\c1csc(C)n1)[C@@H]1C[C@@H]2O[C@@H]2CCC[C@H](C)[C@H](O)[C@@H](C)C(=O)C(C)(C)[C@@H](O)CC(=O)O1 [Compound 79, Epothilone A]	119	
Cc1cc(NS(=O)(=O)c2ccc(N)cc2)no1 [Compound 22, Sulfamethoxazole]	121	
CCCSc1ccc2nc(NC(=O)OC)[nH]c2c1 [Compound 28, Albendazole]	77	
CO[C@H]1/C=C\C=C(/C)C(=O)NC2=CC(=O)C(NCCN(C)C)=C(C[C@@H](C)C[C@H](OC)[C@H](O)[C@@H](C)/C=C(\C)[C@@H]1OC(N)=O)C2=O.Cl [Compound 12, Alvespimycin (17-DMAG) HCl]		120
Nc1ccc(S(=O)(=O)Nc2ncccn2)cc1 [Compound 63, Sulfadiazine]	108	
Cc1ncc([N+](=O)[O-])n1CCO [Compound 76, Metronidazole]	109	
Nc1ccc(S(N)(=O)=O)cc1 [Compound 51, Sulfanilamide]	118	
Cl.N=c1ccn2c(n1)O[C@H]1[C@H](O)[C@@H](CO)O[C@H]12 [Compound 92, Cyclocytidine HCl]		142
O=c1[nH]cc(F)c(=O)[nH]1 [Compound 78, Fluorouracil (5-Fluoracil, 5-FU)]		137
Clc1ccccc1C(c1ccccc1)(c1ccccc1)n1ccnc1 [Compound 60, Clotrimazole]	101	
CC(C)[C@H](N)C(=O)OCCOCn1cnc2c(=O)nc(N)[nH]c21.Cl [Compound 32, Valaciclovir HCl]		74
Cc1nnc(NS(=O)(=O)c2ccc(N)cc2)s1 [Compound 89, Sulfamethizole]	111	
COc1cccc2c1C(=O)c1c(O)c3c(c(O)c1C2=O)C[C@@](O)(C(=O)CO)C[C@@H]3O[C@H]1C[C@H](N)[C@@H](O)[C@H](C)O1 [Compound 2, Epirubicin HCl]	95	
CCc1cc(C(N)=S)ccn1 [Compound 85, Ethionamide]	130	
Oc1ccc(/C=C/c2cc(O)cc(O)c2)cc1 [Compound 37, Resveratrol]	51	
O=c1c(-c2ccc(O)cc2)coc2cc(O)cc(O)c12 [Compound 58, Genistein]	94	
CC[C@H]1OC(=O)[C@H](C)[C@@H](O[C@H]2C[C@@](C)(OC)[C@@H](O)[C@H](C)O2)[C@H](C)[C@@H](O[C@@H]2O[C@H](C)C[C@H](N(C)C)[C@H]2O)[C@](C)(O)C[C@@H](C)CN(C)[C@H](C)[C@@H](O)[C@]1(C)O [Compound 53, Azithromycin]	109	
Cn1c(=O)c2[nH]cnc2n(C)c1=O [Compound 18, Aminophylline]	122	
Nc1ncnc2c1ncn2[C@@H]1O[C@H](CO)[C@@H](O)[C@@H]1O [Compound 9, Vidarabine]	103	

More lines, now with the values ahead:

remaining activity at 50 µM [%]	XT-I Activity [%]	Compound
107		C[C@@H](O)[C@H]1C(=O)N2C(C(=O)O)=C(S[C@@H]3CN[C@H](C(=O)N(C)C)C3)[C@H](C)[C@H]12 [Compound 26, Meropenem]
107		COc1c2occc2cc2ccc(=O)oc12 [Compound 77, Methoxsalen]
59		CN(C)c1cc(NC(=O)CNC(C)(C)C)c(O)c2c1C[C@H]1C[C@H]3[C@H](N(C)C)C(O)=C(C(N)=O)C(=O)[C@@]3(O)C(O)=C1C2=O [Compound 48, Tigecycline]
43		COc1cc(/C=C/C(=O)CC(=O)/C=C/c2ccc(O)c(OC)c2)ccc1O [Compound 86, Curcumin]
87		CC[C@]1(O)C[C@H]2CN(CCc3c([nH]c4ccccc34)[C@@](C(=O)OC)(c3cc4c(cc3OC)N(C=O)[C@H]3[C@@](O)(C(=O)OC)[C@H](OC(C)=O)[C@]5(CC)C=CCN6CC[C@]43[C@@H]65)C2)C1 [Compound 35, Vincristine sulfate]
	114	COc1cc2c(cc1O)CC[C@@H]1[C@@H]2CC[C@]2(C)[C@@H](O)CC[C@@H]12 [Compound 24, 2-Methoxyestradiol (2-MeOE2)]
83		CCN1CCN(C(=O)N[C@@H](C(=O)N[C@@H]2C(=O)N3C(C(=O)O)=C(CSc4nnnn4C)CS[C@H]23)c2ccc(O)cc2)C(=O)C1=O [Compound 71, Cefoperazone]
113		CC(=O)[C@H]1CC[C@H]2[C@@H]3CCC4=CC(=O)CC[C@]4(C)[C@H]3CC[C@]12C [Compound 73, Progesterone]
	106	C[C@@H]1C[C@H]2[C@@H]3CCC4=CC(=O)C=C[C@]4(C)[C@@]3(F)[C@@H](O)C[C@]2(C)[C@@]1(O)C(=O)CO [Compound 25, Dexamethasone (DHAP)]
89		COC(=O)[C@H]1[C@H]2C[C@@H]3c4[nH]c5cc(OC)ccc5c4CCN3C[C@H]2C[C@@H](OC(=O)c2cc(OC)c(OC)c(OC)c2)[C@@H]1OC [Compound 38, Reserpine]
89		C[C@@H]1CN(c2c(F)c(N)c3c(=O)c(C(=O)O)cn(C4CC4)c3c2F)C[C@H](C)N1 [Compound 43, Sparfloxacin]
	86	C[C@@H](O)[C@H]1C(=O)N2C(C(=O)O)=C(S[C@@H]3CN[C@H](CNS(N)(=O)=O)C3)[C@H](C)[C@H]12.O [Compound 4, Doripenem Hydrate]
103		CC(=O)NC[C@H]1CN(c2ccc(N3CCOCC3)c(F)c2)C(=O)O1 [Compound 59, Linezolid]
82		CCC(C)(C)C(=O)O[C@H]1C[C@@H](C)C=C2C=C[C@H](C)[C@H](CC[C@@H]3C[C@@H](O)CC(=O)O3)[C@H]21 [Compound 31, Simvastatin]
114		COc1cc([C@@H]2c3cc4c(cc3[C@@H](O[C@@H]3O[C@@H]5CO[C@@H](C)O[C@H]5[C@H](O)[C@H]3O)[C@H]3COC(=O)[C@H]23)OCO4)cc(OC)c1O [Compound 13, Etoposide]
108		CCn1cc(C(=O)O)c(=O)c2cc(F)c(N3CCN(C)CC3)cc21 [Compound 21, Pefloxacin Mesylate]
50		CO[C@H]1/C=C/O[C@@]2(C)Oc3c(C)c(O)c4c(O)c(c(/C=N/N5CCN(C6CCCC6)CC5)c(O)c4c3C2=O)NC(=O)/C(C)=C\C=C\[C@H](C)[C@H](O)[C@@H](C)[C@@H](O)[C@@H](C)[C@H](OC(C)=O)[C@@H]1C [Compound 30, Rifapentine]
128		C[C@]12CC[C@@H]3c4ccc(O)cc4CC[C@H]3[C@@H]1CC[C@@H]2O [Compound 84, Estradiol]
104		CO/N=C(\C(=O)N[C@@H]1C(=O)N2C(C(=O)OCOC(=O)C(C)(C)C)=C(/C=C\c3scnc3C)CS[C@H]12)c1csc(N)n1 [Compound 52, Cefditoren Pivoxil]
